The values below come from PubChem BioAssay AID2334 (Sanford-Burnham Center for Chemical Genomics, 2010).

pIC50: −log10 of the molar value.

In this test the test system is HEK293 NOD2/MDP-stimulated NF-kB reporter inhibition. Kind of test: PubChem AID 2334.

As for `O=C(Nc1nc2c(F)cc(F)cc2s1)c1ccc([N+](=O)[O-])o1`, the pIC50 is 4.81.

The pIC50 is the negative decadic logarithm of the IC50, by convention in mol/L.
